Reference: patent publication US20220411478A1, “CD70 TARGETED CHIMERIC ANTIGEN RECEPTOR (CAR) T CELLS AND USES THEREOF” (priority 2019, published 2022)

Legend:
Molm13 [1] = experiment: CD70 and CD33 expression on AML in vivo after AZA (femur aspirates, flow cytometry); set-up: species or system NSG mice; settings: five days of AZA IP
From the text: (§1) The following antibody clones targeting their respective antigens were used for flow cytometric analysis where indicated: CD70 (113-16, Biolegend), PeCy7 isotype (MOPC-21, Biolegend), CD69 (FN50, Biolegend), CD107a (H4A3, Biolegend), mouse TER-119 (TER-119, Biolegend), mouse NK-1.1 (PK136, Biolegend), mouse Ly-6G/Ly-6C (Gr-1, Biolegend), mouse CD11b (Biolegend). In general, cells were stained for fifteen minutes in the dark at 4 degrees Celsius and washed in PBS with 2% FBS. When used, DAPI was added to establish live versus dead separation. Trucount tubes (BD Biosciences, 340334) were used for murine blood CAR quantification according to kit instructions. Quantum Simply Cellular beads (Bangs Laboratories, 815) were used to quantify CD70 surface expression.
4.3.1 was used for analysis.
Femur aspirates were analyzed for tumor cells and their CD70 expression via flow cytometry (FIG. 4C). CD70 expression level was compared to isotype controls for each mouse.

CD70 CAR-T cells [2] = experiment: Plate bound antigen activation assay after AZA incubation; assay type: cell-based, human; settings: 100 μM AZA (supratherapeutic), 24 hours, washed, plate-bound CD70 overnight
Method: After washing in PBS, trD27 or CAR T cells were added for 12 hours followed by flow cytometric staining for CD69.

CD70 CAR-T cells [3] = experiment: T-cell subset and activation/exhaustion markers under AZA, co-culture with Molm13; settings: highest concentrations of AZA
[4] = tested on: OCI-AML3 and Molm13 AML lines; experiment: CD70 surface expression after incubation with AZA (flow cytometry), AML lines; assay type: cell-based, human
From the text: as §1

Molm13 [5] = experiment: Real-time cytotoxicity assay (impedance) after AZA incubation of CAR-T cells; assay type: cell-based, human; settings: CAR-T cells treated in 1 μM AZA, after 96 hours
Method: Cell index was recorded as a measure of impedance using the xCELLigence RTCA SP instrument (ACEA biosciences). […] 125,000 Molm13 cells per well were then plated for 28 hours followed by administration of 125,000 CAR-T cells. Cell index was tracked for 96 hours.

Molm13 [6] = experiment: Aggressive Molm13 AML xenograft, azacitidine with CD70 CAR-T cells
Method: For IHC, murine femurs were washed in PBS and then incubated overnight in 4% paraformaldehyde (PF Thermo-Fisher Scientific AAJ19943K2), followed by an overnight incubation in Cal-ex decalcifier (Fisher Scientific, CS510-1D) and then storage in 70% ethanol until staining. Antibody clones for IHC included the following: CD3 (2GV6, Roche) and CD45 (D9M81, Cell Signaling Technology).
NOD-SCID-γ chain−/− (NSG) (Jackson Laboratories) mice were engrafted with Molm13 cell lines as described for the individual experiments. Mice were maintained at the MGH Center for Cancer Research and all care and conducted experiments were carried out using protocols approved by the Massachusetts General Hospital Institutional Animal Care and Use Committee. […] Cryopreserved CD70 CAR T cells or untransduced T cells were injected intravenously via tail vein at the indicated time points. Tumor burden was monitored via bioluminescence following intraperitoneal injection of D-luciferin substrate solution. AMI spectral imaging was used to perform the image capture and IDL software v. 4.3.1 was used for analysis. Animals were euthanized per the experimental protocol or when they met a priori defined endpoints by IACUC.
A complementary technique was used to verify tumor burden and CAR-T cell expansion. […] To determine if these were cancer cells or infiltrating CAR-T cells, human CD3 was stained.

[7] = tested on: solid tumor cell lines as well as primary AML blasts; settings: hypomethylation of the CD70 promoter; cited from earlier work
CD70 CAR-T cells [8] = experiment: AZA exposure of CD70 CAR-T cells: cell number and viability; assay type: cell-based, human; settings: increasing concentrations of AZA, 24 hours, IL-2

## Nc1ncn([C@@H]2O[C@H](CO)[C@@H](O)[C@H]2O)c(=O)n1 [AZA, azacitidine]
Molm13 [1]
  increase in myeloid marker CD33: not observed
CD70 CAR-T cells [2]
  CAR-T cell activation (CD69) compared to control: significant reduction in activation
CD70 CAR-T cells [3]
  PD-1: decreases
  Tim 3: decreases
  effector memory phenotypes: increase in effector memory phenotypes
[4]; 10 μM AZA, FIG. 15, cell line not named
  CD70 expression: bulk increase in CD70 expression
[4]; incubated with AZA for 20 and 44 hours
  CD70 expression: increase in CD70 expression at higher concentrations
Molm13 [5]
  CAR-T cytotoxicity vs control: no statistically significant difference from control
Molm13 [6]; AZA 2.5 mg/kg/day IP day +18 for 5 days, T cells day +22
  treatment effect / tumor control (BLI): slight treatment effect
Molm13 [6]; femurs at sacrifice
  human CD45 staining of bones (immunohistochemistry): abundant human CD45 staining
[7]
  CD70 surface expression: increased CD70 surface expression
CD70 CAR-T cells [8]
  number of CAR-T cells surviving: same number of CAR-T cells survived
  viability of CAR-T cells: preserved across all conditions
